Measured values from PMC9861092, “Napyradiomycin A4 and Its Relate Compounds, a New Anti-PRV Agent and Their Antibacterial Activities, from Streptomyces kebangsaanensis WS-68302” (Molecules, 2023).
Values after ≈ are worked out from the molar mass of the structure shown. “Also recorded” adds a separate entry of the source. Where a name gives a salt, the structure may show the parent alone.

Tests used:
[1] = tested on: Staphylococcus aureus ATCC 25923; assay: microbe, parasite or virus in culture; type: cell-based; settings: for MIC: Staphylococcus aureus, ATCC25923, read-out: MIC S. aureus
Streptococcus suis SC19 = assay: microbe, parasite or virus in culture; type: cell-based; settings: for MIC: Streptococcus suis, SC19, read-out: MIC S. suis
[2] = tested on: Erysipelothrix rhusiopathiae WH13013; assay: microbe, parasite or virus in culture; type: cell-based; settings: for MIC: Erysipelothrix rhusiopathiae, WH13013, read-out: MIC E. rhusiopathiae
[3] = tested on: Escherichia coli ATCC 25922; type: cell-based
PRV protein = type: cell-based, Pseudorabies virus
PRV (Pseudorabies virus) [4] = tested on: PRV (Pseudorabies virus)
in vitro = settings: African green monkey
PRV (Pseudorabies virus) [5] = assay: microbe, parasite or virus in culture; settings: Suid alphaherpesvirus 1, MARC145, 72 h, read-out: IC50 against PRV
[6] = tested on: Bacillus subtilis ATCC6633; settings: cited from earlier work

Row | SMILES | MIC S. aureus [1] | MIC S. suis (Streptococcus suis SC19) | MIC E. rhusiopathiae [2] | MIC E. coli [3] [µg/mL] | Suppression of PRV protein (green fluorescence intensity) in indirect immunofluorescence assay (PRV protein) | MIC [1] [µg/mL] | MIC (Streptococcus suis SC19) [µg/mL] | MIC [2] [µg/mL] | TI (therapeutic index = CC50/IC50) (PRV (Pseudorabies virus) [4]) | CC50 (in vitro) [µM] | IC50 (PRV (Pseudorabies virus) [5]) [µM] | IC50 against PRV (PRV (Pseudorabies virus) [4]) | MIC against Bacillus subtilis ATCC6633 [6] [µg/mL]
1 | CO/N=C(\C(=O)N[C@@H]1C(=O)N2C(C(=O)[O-])=C(C[n+]3cccc4c3CCC4)CS[C@H]12)c1csc(N)n1.O=S(=O)(O)O [Cefpirome Sulfate, cefpirome sulfate, reference compound] | <0.78 µg/mL | <0.78 µg/mL | <0.78 µg/mL | 25 | – | – | – | – | – | – | – | – | –
2 | CC(=CCC12OC(C)(C)C(Cl)CC1(Cl)C(=O)c1c(O)cc(O)cc1C2=O)CCC(=O)C(C)C (stereo not shown) [Compound 1, napyradiomycin A4] | – | weak activity | 50 µg/mL (≈ 101 µM) | – | strongest inhibition; also recorded: significantly suppressed | 25 (≈ 50.3 µM) | 100 (≈ 201 µM) | 25 to 50 (≈ 50.3 to 101 µM) | 14.98 | 30.8 ± 5.57 | 2.06 ± 0.343 | – | –
3 | CC(C)=CCC12OC1(CC=C(C)C(O)CC=C(C)CO)C(=O)c1cc(O)cc(O)c1C2=O (stereo not shown) [Compound 2, A80915H] | did not show any activity and - | did not show any activity and - | did not show any activity and - | – | – | – | – | – | – | > 90 | > 90 | did not display any apparent anti-PRV activity | –
4 | CC(C)=CCC/C(C)=C/C[C@@]12OC(C)(C)[C@H](Cl)C[C@]1(Cl)C(=O)c1c(O)cc(O)cc1C2=O [Compound 3, napyradiomycin A1] | potent activities | – | 50 µg/mL (≈ 104 µM) | – | significantly suppressed | < 0.78 | 3.12 (≈ 6.49 µM) | 25 to 50 (≈ 51.9 to 104 µM) | 2.62 | 5.79 ± 0.708 | 2.21 ± 0.375 | – | –
5 | C=C1CC[C@H](Cl)C(C)(C)C1C[C@@]12OC(C)(C)[C@H](Cl)C[C@]1(Cl)C(=O)c1c(O)cc(O)cc1C2=O (stereo partly shown) [Compound 4, napyradiomycin B1] | potent activities | – | 50 µg/mL (≈ 96.9 µM) | – | significantly suppressed | < 0.78 | 6.25 (≈ 12.1 µM) | 25 to 50 (≈ 48.5 to 96.9 µM) | – | 19.6 ± 2.82 | 13.3 ± 1.11 | – | –
6 | CC(C)=CCC/C(C)=C/C[C@@]12O[C@]1(CC=C(C)C)C(=O)c1c(O)cc(O)cc1C2=O [Compound 5, A80915G] | – | – | 25 µg/mL (≈ 60.9 µM) | – | – | – | 25 (≈ 60.9 µM) | 25 to 50 (≈ 60.9 to 122 µM) | 2.05 | 16.7 ± 1.12 | 8.26 ± 0.902 | – | –
7 | CC(C)=CC[C@]12O[C@@]1(C/C=C(\C)CC/C=C(\C)C(=O)O)C(=O)c1cc(O)cc(O)c1C2=O [Compound 6, A80915G-8″-acid] | – | – | 25 µg/mL (≈ 56.8 µM) | – | – | 50 (≈ 114 µM) | 50 (≈ 114 µM) | 25 to 50 (≈ 56.8 to 114 µM) | – | 46.3 ± 7.36 | 26.5 ± 5 | – | 64 (≈ 145 µM)
8 | CC(C)=CCC/C(C)=C/C[C@]1(O)C(=O)c2cc(O)cc(O)c2C(=O)[C@@]1(Cl)CC=C(C)C [Compound 7, naphthomevalin] | potent activities | – | – | – | – | < 0.625 | 20 (≈ 44.7 µM) | 40 (≈ 89.5 µM) | – | > 0.045 | > 90 | did not display any apparent anti-PRV activity | –
9 | CC1(C)S[C@@H]2[C@H](NC(=O)Cc3ccccc3)C(=O)N2[C@H]1C(=O)O [Penicillin G, Penicillin G sodium salt, reference compound] | – | – | – | – | – | – | 12.5 | 50 | – | – | – | – | –
10 | NC(=O)c1ncn([C@@H]2O[C@H](CO)[C@@H](O)[C@H]2O)n1 [Ribavirin, reference compound] | – | – | – | – | – | – | – | – | >2.82 | > 164 | 58 | – | –
